According to patent US11524966B1 (Valo Early Discovery, Inc., priority 2017, dated 2022):

target: T1, USP28 (His-tagged USP28-FL-mammalian) (Homo sapiens, UniProt Q96RU2); assay: Ubiquitin-Rhodamine 110 Assay for USP28 Activity, Example A-1(a); assay type: biochemical; details: Ubiquitin-Rhodamine 110 assay, Example A-1(a); read-out: USP28 A-1(a) IC50 range
T1 construct: Expression of USP28 (1-1077)-TEV-6*His (pTT5 vector); made in house; host or cells: Expi293f cells (pTT5 vector)
T1 sequence (Q96RU2 1-1077): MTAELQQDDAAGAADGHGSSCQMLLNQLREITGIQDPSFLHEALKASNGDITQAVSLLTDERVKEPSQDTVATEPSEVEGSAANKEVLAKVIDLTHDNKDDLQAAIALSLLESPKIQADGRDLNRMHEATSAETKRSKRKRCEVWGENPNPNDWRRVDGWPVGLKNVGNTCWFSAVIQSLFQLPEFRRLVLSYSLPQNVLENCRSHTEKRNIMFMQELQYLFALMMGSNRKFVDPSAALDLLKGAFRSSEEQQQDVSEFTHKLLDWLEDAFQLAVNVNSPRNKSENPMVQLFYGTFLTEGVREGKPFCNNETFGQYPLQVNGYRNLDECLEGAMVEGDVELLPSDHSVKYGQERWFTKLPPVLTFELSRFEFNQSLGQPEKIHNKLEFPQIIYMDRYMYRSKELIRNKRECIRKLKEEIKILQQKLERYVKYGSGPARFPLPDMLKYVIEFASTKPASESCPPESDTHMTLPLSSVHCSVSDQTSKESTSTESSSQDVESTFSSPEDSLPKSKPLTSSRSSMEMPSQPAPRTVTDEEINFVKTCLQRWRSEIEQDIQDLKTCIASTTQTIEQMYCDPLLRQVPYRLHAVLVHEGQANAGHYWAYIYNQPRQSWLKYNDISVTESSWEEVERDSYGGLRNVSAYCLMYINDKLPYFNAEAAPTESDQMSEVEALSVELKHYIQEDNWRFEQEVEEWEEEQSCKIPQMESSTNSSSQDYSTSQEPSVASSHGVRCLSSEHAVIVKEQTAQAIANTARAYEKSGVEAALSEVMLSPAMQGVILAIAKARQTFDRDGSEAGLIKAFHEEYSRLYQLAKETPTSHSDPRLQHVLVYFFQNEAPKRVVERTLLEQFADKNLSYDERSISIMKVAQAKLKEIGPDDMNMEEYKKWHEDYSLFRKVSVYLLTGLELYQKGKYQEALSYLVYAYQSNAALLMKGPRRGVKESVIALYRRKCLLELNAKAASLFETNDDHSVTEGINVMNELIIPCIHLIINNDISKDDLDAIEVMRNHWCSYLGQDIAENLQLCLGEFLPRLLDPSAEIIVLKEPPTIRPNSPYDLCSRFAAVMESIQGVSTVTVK
In short: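 Full-length His-tagged human USP28 (1-1077, Expi293f-expressed), […], with 25 nM Ub-Rh110 (<<Km) in pH 8.0 Tris buffer with BME, BGG, Triton X-100. 10-point dilutions (25 μM-1.3 nM), 45 min at room temperature, citric acid stop, fluorescence 485/535 nm; IC50 by 4-parameter fit.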

Row | SMILES | IC50 [nM]
1 | CCOC[C@@H]1CN(c2ccc3c(c2)OC[C@H](NC(=O)c2sc4nc(C)ccc4c2N)C3)C[C@@H]1N [Example 313, 3-amino-N-[(3R)-7-[(3R,4R)-3-amino-4-(ethoxymethyl)pyrrolidin-1-yl]-3,4-dihydro-2H-1-benzopyran-3-yl]-6-methylthieno[2,3-b]pyridine-2-carboxamide] | 1 to 50
2 | COC[C@@H]1CN(c2cc(F)c3c(c2F)OC[C@H](NC(=O)c2sc4nc(C)cc(C)c4c2N)C3)C[C@@H]1N [Example 277, 3-amino-N-[(3R)-7-[(3R,4R)-3-amino-4-(methoxymethyl)pyrrolidin-1-yl]-5,8-difluoro-3,4-dihydro-2H-1-benzopyran-3-yl]-4,6-dimethylthieno[2,3-b]pyridine-2-carboxamide] | 1 to 50
3 | Cc1ccc2c(N)c(C(=O)N[C@H]3COc4cc(N5CC6(C5)OCC[C@H]6N)ccc4C3)sc2n1 [Example 337, 3-amino-N-[(3R)-7-[(8R)-8-amino-5-oxa-2-azaspiro[3.4]octan-2-yl]-3,4-dihydro-2H-1-benzopyran-3-yl]-6-methylthieno[2,3-b]pyridine-2-carboxamide] | 1 to 50
4 | COC[C@@H]1CN(c2ccc3c(n2)CC[C@H](NC(=O)c2sc4nc(C)cnc4c2N)C3)C[C@@H]1N [Example 298, 7-amino-N-[(6S)-2-[(3R,4R)-3-amino-4-(methoxymethyl)pyrrolidin-1-yl]-5,6,7,8-tetrahydroquinolin-6-yl]-3-methylthieno[2,3-b]pyrazine-6-carboxamide] | 200 to 2000
5 | Cc1ccc2c(N)c(C(=O)N[C@H]3COc4cc(N5C[C@H]6CCN[C@H]6C5)ccc4C3)sc2n1 [Example 305, N-[(3R)-7-[(3aR,6aR)-octahydropyrrolo[3,4-b]pyrrol-5-yl]-3,4-dihydro-2H-1-benzopyran-3-yl]-3-amino-6-methylthieno[2,3-b]pyridine-2-carboxamide] | 1 to 50
6 | COC[C@@]1(C)CN(c2ccc3c(n2)CC[C@H](NC(=O)c2sc4nc(C)ccc4c2N)C3)CC1N (stereo in doubt) [Example 343, 3-amino-N-[(6S)-2-[(3S,4S)-4-amino-3-(methoxymethyl)-3-methylpyrrolidin-1-yl]-5,6,7,8-tetrahydroquinolin-6-yl]-6-methylthieno[2,3-b]pyridine-2-carboxamide] | 50 to 200
7 | CO[C@H]1[C@@H](C)N(c2ccc3c(c2)OC[C@H](NC(=O)c2sc4nc(C)ccc4c2N)C3)C[C@@H]1N [Example 336, 3-amino-N-[(3R)-7-[(2R,3R,4S)-4-amino-3-methoxy-2-methylpyrrolidin-1-yl]-3,4-dihydro-2H-1-benzopyran-3-yl]-6-methylthieno[2,3-b]pyridine-2-carboxamide] | 1 to 50
8 | CO[C@]12CNC[C@H]1CN(c1ccc3c(c1)OC[C@H](NC(=O)c1sc4nc(C)ccc4c1N)C3)C2 [Example 291, N-[(3R)-7-[(3aS,6aS)-3a-methoxy-octahydropyrrolo[3,4-c]pyrrol-2-yl]-3,4-dihydro-2H-1-benzopyran-3-yl]-3-amino-6-methylthieno[2,3-b]pyridine-2-carboxamide] | 1 to 50
9 | COC[C@H]1CN(c2ccc3c(n2)CC[C@H](NC(=O)c2sc4nc(C)cnc4c2N)C3)C[C@H]1N [Example 299, 7-amino-N-[(6S)-2-[(3S,4S)-3-amino-4-(methoxymethyl)pyrrolidin-1-yl]-5,6,7,8-tetrahydroquinolin-6-yl]-3-methylthieno[2,3-b]pyrazine-6-carboxamide] | 50 to 200
10 | CO[C@H]1CCN(c2ccc3c(c2)OC[C@H](NC(=O)c2sc4nc(C)cc(C)c4c2N)C3)C[C@@H]1N [Example 317, 3-amino-N-[(3R)-7-[(3S,4S)-3-amino-4-methoxypiperidin-1-yl]-3,4-dihydro-2H-1-benzopyran-3-yl]-4,6-dimethylthieno[2,3-b]pyridine-2-carboxamide] | 1 to 50
